According to patent publication US7312302B2, “Compositions for the detection of enzyme activity in biological samples and methods of use thereof” (Oncolmmunin, Inc., priority 1997, dated 2007):
Non-standard residues stand in square brackets, D forms with d. Residues, ends and D or L forms follow the SMILES beside them. No end group written: not given here. *: point of attachment. F1 = 5-carboxytetramethylrhodamine (donor fluorophore); code B = not defined here; code J = not defined here; Nle = CCCC[C@H](N)C(=O)O; Cbz = O=C(OCc1ccccc1)*; F^2 = not defined here; CH2F = FC*

Key:
[1] = intravenously injected antiFas; ischemia-reperfusion stroke model; cited from earlier work
[2] = tested on: intracellular caspases; assay: Effect of ZVAD(OMe)FMK on in situ caspase activation in dexamethasone-treated thymocytes, flow cytometry at 6 h; format: cell-based, mouse; parameters: effect when added before or simultaneously with dexamethasone: dose or concentration left out as unconfirmed
Procedure: Thymocytes were treated with 0.1 mM dexamethasone in vitro and analyzed after a total of 6 h incubation. The apoptosis inhibitor ZVAD(OMe)FMK was added at various times of incubation as indicated, and the caspase activities were assessed by flow cytometry. The results are expressed as ratios of mean fluorescence channel number comparing the activity in the presence of 50 mM ZVAD(OMe)FMK with the uninhibited sample for that substrate.
Single cell suspensions of thymocytes were cultured in RPMI 1640 with 10% FCS at a concentration of 10 6 cells/ml. Dexamethasone (final concentration, 0.1 mM) and ZVAD (OMe)FMK (final concentration, 50 mM) were added at the indicated times from stock solutions in DMSO (100 mM for dexamethasone and 200 mM for ZVAD[OMe]FMK). […] After washing in saline, cells were analyzed by flow cytometry. […] The fluorescence intensity was then monitored for 30-60 min. The initial velocity was calculated from the linear portion of the fluorescence increase. […]
The ability to detect intracellular caspase activities allowed us to study the pharmacological target of the potent apoptosis inhibitor ZVAD(OMe)FMK. […] Activity was assessed by the mean fluorescence channel number of PInegative cells. […] However, when addition of this inhibitor was delayed, the intracellular activity of all caspases detected rose, with no significant selective depletion of activity. […]

[3] = tested on: thymocytes; conditions: in vitro; cited from earlier work
[4] = tested on: elastase; assay: Elastase digestion of fluorogenic protease indicator, HPLC of cleavage products; format: biochemical; conditions: 1 unit of elastase, about 30 minutes, 37° C., pH 8.9
Procedure: Approximately 1 microgram of protease indicator, having the formula F^1-Asp-Ala-Ile-Pro-Nle-Ser-Ile-Pro-Cys-F^2 (SEQ ID No: 184) where F^1 is a donor fluorophore (5′-carboxytetramethylrhodamine (5-TMR)) linked to aspartic acid via the alpha amino group and F^2 is an acceptor fluorophore (rhodamine X acetamide (R492)) linked via the sulfhydryl group of the cysteine was dissolved in a buffer consisting of 50 mM sodium phosphate, 1 mM EDTA at pH 8.9. To this solution was added 1 unit of elastase. The solution was analyzed by HPLC before and about 30 minutes after the addition of elastase. The digestion was carried out at 37° C. The HPLC separated components were monitored at a wavelength of 550 nm which allowed detection of both the 5-TMR fluorophore the R492 fluorophore and at 580 nm which allowed detection of the R492 fluorophore.
In addition, the two predominant peaks in FIGS. 1(b) and 1(c) indicate that the digestion occurred primarily at a single site.

[5] = tested on: elastase; assay: Emission spectrum change of indicator after addition of elastase (spectrofluorometer); format: biochemical; conditions: 37° C., slit widths 4 nm
Procedure: Changes in the emission spectrum of the fluorogenic protease indicator after the addition of an elastase protease was monitored using an SLM spectrofluorometer model 48000 with slit widths set at 4 nm on both the excitation and emission sides. All measurements were carried out at 37° C.
Spectra in FIG. 2 show emission of the fluorogenic protease indicator (a) before and (b) after addition of elastase, while the time dependent increase of the indicator's donor fluorophore emission intensity, after addition of elastase, is plotted in FIG. 3. […] The changes in intensity between treated and untreated indicators are, to some degree, a function of slit widths used, since they represent the signal integrated across the particular slit width. Thus, if wider slit widths were used (e.g. 8 or 16 nm slits) an even greater signal would be provided in response to digestion.

[6] = target: T1, CPP32 protease (Homo sapiens, UniProt P42574); assay: Flow cytometric analysis of intracellular CPP32 protease activity in anti-Fas activated Jurkat cells; format: cell-based
T1 construct: served as a direct measure of the intracellular CPP32 protease activity; endogenous in cells
T1 sequence (P42574 29-277): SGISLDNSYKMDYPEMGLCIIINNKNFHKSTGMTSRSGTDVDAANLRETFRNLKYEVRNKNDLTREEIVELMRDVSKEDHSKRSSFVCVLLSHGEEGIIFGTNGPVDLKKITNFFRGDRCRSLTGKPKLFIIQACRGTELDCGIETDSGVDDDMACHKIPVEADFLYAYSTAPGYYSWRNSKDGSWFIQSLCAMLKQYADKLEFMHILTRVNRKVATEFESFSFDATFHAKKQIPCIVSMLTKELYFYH
Procedure: The concentration of substrates used in flow cytometric analysis was 10 M in RPMI1640 medium containing 4 to 10% fetal calf serum. Cell densities during incubation with the chosen substrates ranged from 50,000 cells per ml to 4,000,000 per ml. Incubation times were from 30 min. to 3 hours at 37° C. and incubation volumes were 50 μL to 2 ml. After incubation with substrate for 30 to 60 min. cell suspensions were diluted 10-fold with ice cold Hank's Buffered Saline Solution (HBSS). This filtered cell suspension was then subjected to flow cytometric analysis using a 488 nm excitation source. Becton Dickenson, Inc.'s flow cytometer, FacSort, was used in the flow cytometric analysis. […]
Control cells without substrate incubation and the sample with the greatest expected fluorescence signals were used to set the instrument detector parameters. For example after 15 minutes incubation of Jurkat cells with substrate compound #11 Fm-CGD2D: Fm—K[F1]DBJGDEVDGIDGJPK[F1]GY (SEQ ID NO: 202, where F1 was carboxytetramethylrhodamine; Fm was Fmoc, K[F1] was F1 covalently attached through the epsilon amino group of lysine (K), Nlu was norleucine, B was aminoisobutyric acid, and J was epsilon-aminocaproic acid) an increase of about 10 channels indicating cellular uptake of the substrates was measured. […] As much as a ten-fold increase in fluorescence intensity was observed. […]

[7] = tested on: Jurkat cells, HL-60 cells, human lymphocyte lines, A1.1 cells, murine primary thymocytes; assay: Cellular uptake of substrates by fluorescence microscopy, flow cytometry, HPLC; format: cell-based; conditions: viable cells
Procedure: The compounds listed in Table 6 were synthesized and assayed for cellular uptake. Cellular internalization of the substrates was tested using Jurkat cells (a human acute T cell leukemic line), HL-60 cells (a human promyelocytic leukemic line), human lymphocyte lines, A1.1 cells (a murine T-cell line), and murine primary thymocytes. Procedures used in determining substrate uptake by viable cells are provided in Example 6 (for the HPLC procedures), in Example 2 (for the fluorescence microscopic analysis), and in Example 3 (for the flow cytometric analysis) a summary of these analyses with respect to cellular uptake of substrates is presented in this example.
The elastase substrate, Fm—K[F1]DAIPNluSIPK[F1]GY (SEQ ID NO:185), (where F1 was carboxytetramethylrhodamine, Fm was Fmoc, K[F1] was F1 covalently attached through the epsilon amino group of lysine (K), and Fm—K is the Fmoc group covalently attached at the alpha amino group of the amino terminal lysine residue) was used with HL-60 cells. Cells were incubated with various concentrations of elastase substrate ranging from 10 nM to 10 μM for 5 minutes to 60 minutes. Then the cells were diluted 5-fold with RPMI 1640 medium containing 5% serum or with phosphate buffered saline. The samples were centrifuged and washed once more with 1 ml of washing solution. After centrifugation and removal of the washing solution, cell pellets were loosened with about 25 ul of medium and these cells were transferred to a glass capillary. Capillary tubes were then placed on a glass microscope slide and examined under a fluorescence microscope using standard rhodamine filters.
For apoptosis-related protease activity determination, 10 μM concentration of the compounds listed in Example 8 (compound structures 2 through 13) were incubated with cells for 30 min. to 3 hours. The cells were then washed similarly twice. Using glass capillary tubes, the washed cells were transferred and examined under a fluorescence microscope.
The concentration of substrates used in flow cytometric analysis was 10 M in RPMI1640 medium containing 4 to 10% fetal calf serum. Cell densities during incubation with the chosen substrates ranged from 50,000 cells per ml to 4,000,000 per ml. Incubation times were from 30 min. to 3 hours at 37° C. and incubation volumes were 50 μL to 2 ml. After incubation with substrate for 30 to 60 min. cell suspensions were diluted 10-fold with ice cold Hank's Buffered Saline Solution (HBSS). This filtered cell suspension was then subjected to flow cytometric analysis using a 488 nm excitation source. Becton Dickenson, Inc.'s flow cytometer, FacSort, was used in the flow cytometric analysis. Typically, 10,000 to 30,000 events per sample were collected.

In the case of `COC(=O)C[C@H](NC(=O)[C@H](C)NC(=O)[C@@H](NC(=O)OCc1ccccc1)C(C)C)C(=O)CF` [ZVAD(OMe)FMK, carbobenzoxyvalylalanylaspartyl(bmethyl ester)fluoromethyl ketone] (Cbz-Val-Ala-Asp(OMe)-CH2F), the protection of mice [1] is listed as “protect mice from the lethal effects”, the “effect of pretreatment followed by washing before dexamethasone addition” value [2] is listed as “minimal inhibition” and the “effect when added before or simultaneously with dexamethasone” value [2] is listed as “blocks apoptosis”. For the same compound, the “block of dexamethasone-induced thymocyte apoptosis” value [3] was “specifically blocks”.

For “F^1-Asp-Ala-Ile-Pro-Nle-Ser-Ile-Pro-Cys-F^2 (DAIP[Nle]SIPC-{F^2}; not fully specified (residue 9, N-terminus); printed as F1-Asp-Ala-Ile-Pro-Nle-Ser-Ile-Pro-Cys-F2; reading uncertain) [D-NorFES-A, F1 5'-carboxytetramethylrhodamine donor, F2 rhodamine X acetamide acceptor]”, the “degree of cleavage by elastase (HPLC)” value [4] was “complete digestion”, the “increase in fluorescence at 589 nm after treatment with elastase” value [5] was over 10 fold and the “increase in fluorescence within the first 1000 seconds of exposure to the protease” value [5] was over 5 fold.

For “Fm-K[F1]DBJGDEVDGIDGJPK[F1]GY (K(F1)D[code B][code J]GDEVDGIDG[code J]PK(F1)GY; not fully specified (N-terminus); printed as Fm-K[F1]DBJGDEVDGIDGJPK[F1]GY; reading uncertain) [Compound 11]”, the “increase in fluorescence intensity in activated cells” value ([6]; 1 μg/ml anti-Fas antibody CH11 for 1 to 6 hours) was “ten-fold”, the “increase in channels indicating cellular uptake” value ([6]; 15 minutes incubation) was “about 10 channels” and the “cellular uptake (Table 6)” value [7] was “efficient cellular uptake”.
